From patent publication US10279190B2, “Treating disease with resonance generating electromagnetic fields” (Anapole Technologies Inc., priority 2016, dated 2019)
Marks after values point to notes of the source that are not given here.

Assays:
U-87 MG cells [1] = assay: U-87 MG cell number (count & viability) after docetaxel treatment; assay type: cell-based; settings: 25 nM docetaxel, 72 hours, vs vehicle control, not significant
Protocol: (§1) U-87 MG cells may be plated at a density of 8×10^5 cells/150-mm dish. 48 hours after plating, cells may be treated with vehicle control or 25 nM docetaxel for 72 hours. At the end of treatment, cells may be harvested by trypsinization, and an aliquot of live/unfixed cells may be used to determine cell number, PS externalization, and caspase-3/7 activity using a cell analyzer. Remaining cells may be fixed for cell cycle analysis using a cell analyzer and DNA fragmentation analysis by BD LSRII Flow Cytometry as described below.
(§2) U-87 MG cells harvested by trypsinization may be pooled with media plus washes and pelleted by centrifugation. The cells may be re-suspended in complete media diluted 1:10 with PBS (1% FBS/PBS). For determination of count and viability, an aliquot of the cell suspension may be diluted 1:10 with a count & viability reagent, which differentially stains viable and non-viable cells based on their permeability to two DNA binding dyes, and incubated for 5 minutes in the dark at room temperature according to manufacturer's protocol. For detection of phosphatidylserine (PS) externalization, an aliquot of cell suspension appropriately diluted in 1% FBS/PBS may be mixed 1:1 with an Annexin V & dead cell reagent and incubated for 20 minutes in the dark at room temperature according to manufacturer's protocol. […]

U-87 MG cells [2] = assay: DNA fragmentation of U-87 MG cells (APO-BRDU, flow cytometry); assay type: cell-based; settings: 25 nM, 72 hour treatment; percentage of the cell population, mean±SD, n=2
Protocol: as §1
For analysis of DNA fragmentation, U-87 MG cells may be harvested by trypsinization, collected by centrifugation, fixed in 2% formaldehyde in PBS, and permeabilized in 70% EtOH at −20° C. DNA strand breaks in cells undergoing apoptosis may be indirectly labeled with bromodeoxyuridine by terminal transferase and detected by FITC-conjugated monoclonal antibody to bromodeoxyuridine using the APO-BRDU kit according to manufacturer's protocol. Cells may be counterstained with 5 μg/ml propidium iodide containing RNase A for detection of total DNA, and two-color analysis of DNA strand breaks and cell cycle may be achieved by flow cytometry. Flow cytometric analysis may be performed on a BD LSR II Flow Cytometer equipped with three excitation lasers (405-nm, 488-nm and 633-nm). For DNA fragmentation analysis, FITC and PI signals may be collected by 488-nm octagon detection array with no color compensation. 10,000 events gated on single cell populations may be collected and post-acquisition analysis may be performed using software FlowJo 7.6.5.
Table 6 is an analysis of DNA fragmentation of U-87 MG cells after 72 hour treatment with 25 nM docetaxel. DNA fragmentation may be determined by flow cytometry as described above.

U-87 MG cells [3] = settings: 25 nM, 72 hours; "has been shown"; cited from earlier work
U-87 MG cells [4] = assay: Caspase-3/7 activation in U-87 MG cells; assay type: cell-based; settings: 25 nM, 72 hours, vs vehicle control
Protocol: as §1
U-87 MG cells harvested by trypsinization may be pooled with media plus washes and pelleted by centrifugation. The cells may be re-suspended in complete media diluted 1:10 with PBS (1% FBS/PBS). […]
Cleavage by active caspase-3/7 releases the dye within the cell and results in translocation to the nucleus, binding to DNA and high fluorescence. […] A cell cycle reagent may be a proprietary formulation containing the DNA intercalating dye propidium iodide and RNAse A. The multiparametric fluorescent detection of individual cells may be performed by a cell analyzer, a microcapillary flow cytometer equipped with a 532-nm laser, a forward scatter and two fluorescence (YLW 576/26, RED 680/30) detectors. […]

U-87 MG cells [5] = assay: Cell cycle analysis of U-87 MG cells (cell cycle reagent, propidium iodide); assay type: cell-based; settings: 25 nM, 72 hour treatment; proportion of cells in cell cycle phase, mean±SD, n=3
Protocol: as §1
Cleavage by active caspase-3/7 releases the dye within the cell and results in translocation to the nucleus, binding to DNA and high fluorescence. For cell cycle analysis, an ethanol-fixed cell suspension may be obtained by taking an aliquot of cell suspension, pelleting by centrifugation, resuspending in PBS, and fixing in 70% ethanol at −20° C. Fixed cells may be washed in PBS/0.2% BSA, pelleted by centrifugation, resuspended in a cell cycle reagent, and incubated for 30 minutes in the dark at room temperature according to manufacturer's protocol. A cell cycle reagent may be a proprietary formulation containing the DNA intercalating dye propidium iodide and RNAse A. The multiparametric fluorescent detection of individual cells may be performed by a cell analyzer, a microcapillary flow cytometer equipped with a 532-nm laser, a forward scatter and two fluorescence (YLW 576/26, RED 680/30) detectors. Data acquisition and analysis of count & viability, Annexin V & dead cell, and caspase-3/7 assays may be done by analysis software. Post-acquisition analysis of cell cycle data may be performed using software (e.g., FlowJo 7.6.5).
Table 5 is a cell cycle analysis of U-87 MG cells after 72 hour treatment with 25 nM docetaxel. At the end of 72 hour treatment, cells may be harvested and cell cycle may be determined by incubating the cells in a cell cycle reagent and following the manufacturer's protocol. Data represent the mean±SD of three independent biological replicates (*p<0.1).

U-87 MG cells [6] = assay: PS externalization (Annexin V staining) in U-87 MG cells; assay type: cell-based; settings: 25 nM, 72 hours, vs vehicle control
Protocol: as §1, §2

CC(=O)O[C@@]12CO[C@@H]1C[C@H](O)[C@@]1(C)C(=O)[C@H](O)C3=C(C)[C@@H](OC(=O)[C@H](O)[C@@H](NC(=O)OC(C)(C)C)c4ccccc4)C[C@@](O)([C@@H](OC(=O)c4ccccc4)[C@H]21)C3(C)C [Docetaxel, docetaxel]
decrease in U-87 MG cell number (U-87 MG cells [1]): 20%
decrease in U-87 MG cell number (U-87 MG cells [1]; listed as docetaxel): approximately 20%
DNA Frag (+) Apoptotic bodies (upper left quadrant) (U-87 MG cells [2]): 0.10 ± 0.0%
DNA Frag (+) Cells (upper right quadrant) (U-87 MG cells [2]): 2.11 ± 1.69%
DNA Frag (−) Apoptotic bodies (lower left quadrant) (U-87 MG cells [2]): 3.57 ± 1.65%
DNA Frag (−) Cells (lower right quadrant) (U-87 MG cells [2]): 94.2 ± 0.07%
arresting cell growth in U-87 MG cells, compared with temozolomide (U-87 MG cells [3]): as effective as temozolomide
caspase-3/7 activation (U-87 MG cells [4]): significant increase
G1 (U-87 MG cells [5]): 39.7 ± 4.8*
G2/M (U-87 MG cells [5]): 22.1 ± 4.4
S (U-87 MG cells [5]): 26.7 ± 1.7*
Sub-G0 (U-87 MG cells [5]): 9.9 ± 3.9*
Annexin V positive cells (U-87 MG cells [6]): significant increase
